Earlier results as cited in patent US20030216458A1, “Combination therapy for the treatment of migraine” (priority 1999, published 2003).

Conditions: anaesthetized dog

For `CNS(=O)(=O)Cc1ccc2[nH]cc(CCN(C)C)c2c1` [Sumatriptan], the “effect on carotid vascular resistance” value is given as “selective increase in carotid vascular resistance”.
